Measurements: patent US7704971B2, “Uracil reductase inactivators” (SmithKlineBeecham Corporation, priority 1990, dated 2010)

Tests used:
[1] = target: T1, Uracil reductase (dihydropyrimidine dehydrogenase, EC 1.3.1.2) (Bos taurus, UniProt Q28007); experiment: Determination of uracil reductase inactivation; format: biochemical, bovine
T1 construct: purified from bovine liver; from tissue; host or cells: bovine liver
T1 sequence (Q28007 1-1025): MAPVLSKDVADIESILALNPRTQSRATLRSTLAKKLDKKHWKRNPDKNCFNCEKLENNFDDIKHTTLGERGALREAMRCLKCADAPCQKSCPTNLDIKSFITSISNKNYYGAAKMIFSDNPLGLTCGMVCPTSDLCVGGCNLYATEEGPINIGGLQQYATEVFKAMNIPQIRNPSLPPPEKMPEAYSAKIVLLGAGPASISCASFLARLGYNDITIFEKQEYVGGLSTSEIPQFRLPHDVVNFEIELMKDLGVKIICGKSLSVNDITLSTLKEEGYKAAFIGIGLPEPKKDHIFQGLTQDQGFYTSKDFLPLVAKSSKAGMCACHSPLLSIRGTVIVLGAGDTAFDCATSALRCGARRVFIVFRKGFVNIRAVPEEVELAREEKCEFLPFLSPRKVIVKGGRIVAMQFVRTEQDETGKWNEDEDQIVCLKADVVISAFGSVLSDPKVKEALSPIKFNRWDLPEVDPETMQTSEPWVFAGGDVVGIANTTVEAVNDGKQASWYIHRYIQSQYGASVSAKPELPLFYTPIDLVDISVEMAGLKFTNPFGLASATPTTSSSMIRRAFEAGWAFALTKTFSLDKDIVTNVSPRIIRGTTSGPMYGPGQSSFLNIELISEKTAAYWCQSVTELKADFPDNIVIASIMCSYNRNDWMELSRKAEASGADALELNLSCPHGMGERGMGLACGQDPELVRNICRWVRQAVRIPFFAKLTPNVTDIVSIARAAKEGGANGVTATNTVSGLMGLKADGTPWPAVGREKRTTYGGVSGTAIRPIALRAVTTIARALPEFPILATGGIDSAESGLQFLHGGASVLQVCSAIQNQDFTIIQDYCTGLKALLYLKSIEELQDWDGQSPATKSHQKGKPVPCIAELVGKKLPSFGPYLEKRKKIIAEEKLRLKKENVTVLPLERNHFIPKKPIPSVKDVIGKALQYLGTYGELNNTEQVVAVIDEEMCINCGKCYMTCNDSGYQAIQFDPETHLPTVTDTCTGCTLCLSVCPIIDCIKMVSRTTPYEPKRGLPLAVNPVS
Protocol: Uracil reductase (1 micromolar) (dihydropyrimidine dehydrogenase, EC 1.3.1.2) purified from bovine liver was incubated with 100 micromolar inactivator and 5 mM dithiothreitol (enzyme reductant) at 37° for 30 minutes in 0.05 M Tris-HCl at pH 8.0. The enzyme and inactivator were diluted 100-fold into the assay buffer, which contained 200 micromolar NADPH, 200 micromolar thymine and 1 mM dithiothreitol in Tris-HCl at pH 8.0. The velocity of the enzyme was determined spectrophotometrically. These velocities have been corrected for NADPH oxidase activity, which was less than […] of the rate of thymine-dependent oxidation of NADPH. The % inactivation of the enzyme was equal to 100% minus the percent of enzymatic activity remaining. Enzyme incubated without inhibitor was stable under these conditions. Parenthetical values are the relative first-order rate constants for inactivation of enzyme determined from similar experiments where the fractional activity was measured as a function of the time of incubation of 50 micromol inactivator with enzyme.

uracil reductase [2] = target: T2, uracil reductase (Mus musculus, UniProt Q8CHR6); experiment: Inactivation of uracil reductase in vivo (plasma uracil and thymine), mice
T2 construct: from tissue; host or cells: whole animal (mouse), endogenous enzyme
T2 sequence (Q8CHR6 1-1025): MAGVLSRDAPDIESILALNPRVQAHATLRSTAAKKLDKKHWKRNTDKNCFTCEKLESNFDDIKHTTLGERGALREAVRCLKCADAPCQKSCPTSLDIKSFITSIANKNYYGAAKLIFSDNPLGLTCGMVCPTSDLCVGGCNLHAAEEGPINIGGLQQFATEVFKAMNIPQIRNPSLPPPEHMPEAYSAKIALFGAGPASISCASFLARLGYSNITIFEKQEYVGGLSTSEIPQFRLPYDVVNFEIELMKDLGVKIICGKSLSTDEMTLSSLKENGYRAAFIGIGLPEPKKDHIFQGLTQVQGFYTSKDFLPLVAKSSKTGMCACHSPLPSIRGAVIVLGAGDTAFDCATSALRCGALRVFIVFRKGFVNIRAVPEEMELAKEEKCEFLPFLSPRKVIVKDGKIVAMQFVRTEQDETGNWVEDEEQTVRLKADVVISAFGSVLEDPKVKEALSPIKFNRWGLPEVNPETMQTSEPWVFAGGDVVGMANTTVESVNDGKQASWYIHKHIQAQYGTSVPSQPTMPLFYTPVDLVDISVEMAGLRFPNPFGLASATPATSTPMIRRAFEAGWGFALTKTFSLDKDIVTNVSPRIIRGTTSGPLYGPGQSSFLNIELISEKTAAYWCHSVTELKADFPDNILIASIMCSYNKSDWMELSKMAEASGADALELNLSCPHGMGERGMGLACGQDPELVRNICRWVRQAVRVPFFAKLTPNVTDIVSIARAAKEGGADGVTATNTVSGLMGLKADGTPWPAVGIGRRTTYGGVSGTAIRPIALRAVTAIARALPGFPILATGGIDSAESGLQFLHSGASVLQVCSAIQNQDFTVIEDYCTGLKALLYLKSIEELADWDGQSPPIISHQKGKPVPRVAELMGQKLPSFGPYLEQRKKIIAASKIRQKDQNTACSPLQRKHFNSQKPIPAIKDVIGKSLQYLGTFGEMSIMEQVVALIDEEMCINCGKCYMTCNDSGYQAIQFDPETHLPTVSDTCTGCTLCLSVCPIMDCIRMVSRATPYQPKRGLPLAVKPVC
Protocol: (§1) The maximum effect occurred at about 0.1 mg/kg p.o. in rats, at 0.5 to 1 mg/kg s.c. in mice, and at approximately 1 mg/kg intravenously (i.v.) in dogs and probably represents total inactivation of uracil reductase. These doses elevated mouse, dog, and rat plasma uracil from about 3 uM to about 50-60 uM. […] The ED50 equals 0.01 mg/kg.

[3] = Effect on plasma FU level, mice; format: in vivo; settings: 5-FU p.o. or i.p., EU 2 mg/kg i.p. 90 minutes prior to 5-FU
Protocol: Mice were dosed either orally (p.o.) or interperitoneally (i.p.) with 5-fU. 5-ethynyluracil (EU) at 2mg/kg was dosed i.p. 90 minutes prior to the 5-FU.
In addition, the usual variability in plasma FU in rats orally dosed with FU at 50 mg/kg was eliminated by EU pretreatment.

uracil reductase [4] = experiment: Return of plasma uracil to normal after EU (species not specified); format: in vivo; settings: after EU dose of maximum effect
Protocol: as §1

uracil reductase [5] = experiment: Inactivation of uracil reductase in vivo (plasma uracil and thymine), monkeys; settings: monkeys dosed with small amounts
Protocol: as §1

## C#Cc1c[nH]c(=O)[nH]c1=O [5-ethynyluracil]
[1]; 50 micromol inactivator, fractional activity vs time of incubation
  relative first-order rate constants for inactivation of enzyme (parenthetical values): (100)
[1]; 0.5 h, 100 micromolar inactivator, 1 micromolar enzyme, 5 mM dithiothreitol, 37° for 30 minutes, pH 8.0, read-out: % Inactivation
  inhibition at 100 µM: 100%
Uracil reductase [2]; mice, s.c.
  dose at which the maximum effect on plasma uracil and thymine occurred: 0.5 to 1 mg/kg
Uracil reductase [2]; mouse, at dose of maximum effect, elevated from about 3 uM
  plasma uracil: 50 to 60 µM
[3]
  plasma levels of 5-fluorouracil: increased
Uracil reductase [4]
  half-life of plasma uracil decrease to normal: 10 h
  time over which plasma uracil decreased to normal: 24 h
Uracil reductase [5]
  plasma uracil and thymine levels: greatly elevated
